Measurements published in patent US20100004234A1, “SPECIFIC KINASE INHIBITORS” (Kosan Biosciences Incorporated, priority 2004, published 2010).

Key:
Test in all cases: Kinase panel, residual activity
Assay type in all cases: biochemical
Details in all cases: read-out: Percent residual activity
[1] = target: GSK3α(h) (Homo sapiens, UniProt P49840)
Description: (§1) In this panel of 124 kinases, 18 of the 19 kinases identified as having an active site cysteine were inhibited to some extent by hypothemycin at a concentration of 0.2 μM and/or 2 μM.

[2] = target: PKCβII(h) (Homo sapiens, UniProt P05771)
Description: as §1

[3] = target: Rsk1(h) (Homo sapiens, UniProt Q15418)
Description: as §1

[4] = target: EphB2(h) (Homo sapiens, UniProt P29323)
Description: as §1

[5] = target: Fer(h) (Homo sapiens, UniProt P16591)
Description: as §1

[6] = target: Tie2(h) (Homo sapiens, UniProt Q02763)
Description: as §1

[7] = target: Ret(h) (Homo sapiens, UniProt P07949)
Description: as §1

[8] = target: TrkB(h) (Homo sapiens, UniProt Q16620)
Description: as §1

[9] = target: IKKβ(h) (Homo sapiens, UniProt O14920)
Description: as §1

[10] = target: Ron(h) (Homo sapiens, UniProt Q04912)
Description: as §1

[11] = target: MKK7β(h) (Homo sapiens, UniProt O14733)
Description: as §1

[12] = target: PRK2(h) (Homo sapiens, UniProt Q16513)
Description: as §1

[13] = target: Met(h) (Homo sapiens, UniProt P08581)
Description: as §1

[14] = target: Arg(h) (Homo sapiens, UniProt P42684)
Description: as §1

[15] = target: ALK(h) (Homo sapiens, UniProt Q9UM73)
Description: as §1

[16] = target: FGFR1(h) (Homo sapiens, UniProt P11362)
Description: as §1

[17] = target: CaMKIV(h) (Homo sapiens, UniProt Q16566)
Description: as §1

[18] = target: MST2(h) (Homo sapiens, UniProt Q13188)
Description: as §1

[19] = target: PAK2(h) (Homo sapiens, UniProt Q13177)
Description: as §1

[20] = target: PKBβ(h) (Homo sapiens, UniProt P31751)
Description: as §1

[21] = target: CDK2/cyclinA(h) (Homo sapiens, UniProt P24941)
Description: as §1

[22] = target: RIPK2(h) (Homo sapiens, UniProt O43353)
Description: as §1

[23] = target: cKit(D816V)(h) (Homo sapiens, UniProt P10721, D816V)
Description: as §1

[24] = target: ASK1(h) (Homo sapiens, UniProt Q99683)
Description: as §1

[25] = target: JNK1α1(h) (Homo sapiens, UniProt P45983)
Description: as §1

[26] = target: Rsk3(h) (Homo sapiens, UniProt Q15349)
Description: as §1

[27] = target: ZIPK(h) (Homo sapiens, UniProt O43293)
Description: as §1

[28] = target: Abl(T315I)(h) (Homo sapiens, UniProt P00519, T315I)
Description: as §1

[29] = target: PKCε(h) (Homo sapiens, UniProt Q02156)
Description: as §1

[30] = target: NEK2(h) (Homo sapiens, UniProt P51955)
Description: as §1

[31] = target: DDR2(h) (Homo sapiens, UniProt Q16832)
Description: as §1

[32] = target: PAK4(h) (Homo sapiens, UniProt O96013)
Description: as §1

[33] = target: PKCδ(h) (Homo sapiens, UniProt Q05655)
Description: as §1

[34] = target: Flt1(h) (Homo sapiens, UniProt P17948)
Description: as §1

[35] = target: Ros(h) (Homo sapiens, UniProt P08922)
Description: as §1

[36] = target: PAR-1Bα(h) (Homo sapiens, UniProt Q7KZI7)
Description: as §1

[37] = target: MAPKAP-K3(h) (Homo sapiens, UniProt Q16644)
Description: as §1

Chain of MKK7β(h) (O14733 whole entry): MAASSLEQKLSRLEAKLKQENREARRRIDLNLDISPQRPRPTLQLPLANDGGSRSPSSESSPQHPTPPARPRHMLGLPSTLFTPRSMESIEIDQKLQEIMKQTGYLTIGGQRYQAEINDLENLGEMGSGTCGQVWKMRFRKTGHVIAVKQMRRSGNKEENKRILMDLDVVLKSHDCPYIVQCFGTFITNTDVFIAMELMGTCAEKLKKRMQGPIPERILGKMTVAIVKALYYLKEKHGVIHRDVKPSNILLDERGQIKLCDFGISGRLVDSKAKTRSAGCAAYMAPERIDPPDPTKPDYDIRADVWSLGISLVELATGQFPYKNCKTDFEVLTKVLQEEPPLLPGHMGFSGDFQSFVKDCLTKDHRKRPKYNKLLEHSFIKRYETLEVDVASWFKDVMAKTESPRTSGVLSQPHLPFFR
Chain of cKit(D816V)(h) (P10721 26-976 D816V): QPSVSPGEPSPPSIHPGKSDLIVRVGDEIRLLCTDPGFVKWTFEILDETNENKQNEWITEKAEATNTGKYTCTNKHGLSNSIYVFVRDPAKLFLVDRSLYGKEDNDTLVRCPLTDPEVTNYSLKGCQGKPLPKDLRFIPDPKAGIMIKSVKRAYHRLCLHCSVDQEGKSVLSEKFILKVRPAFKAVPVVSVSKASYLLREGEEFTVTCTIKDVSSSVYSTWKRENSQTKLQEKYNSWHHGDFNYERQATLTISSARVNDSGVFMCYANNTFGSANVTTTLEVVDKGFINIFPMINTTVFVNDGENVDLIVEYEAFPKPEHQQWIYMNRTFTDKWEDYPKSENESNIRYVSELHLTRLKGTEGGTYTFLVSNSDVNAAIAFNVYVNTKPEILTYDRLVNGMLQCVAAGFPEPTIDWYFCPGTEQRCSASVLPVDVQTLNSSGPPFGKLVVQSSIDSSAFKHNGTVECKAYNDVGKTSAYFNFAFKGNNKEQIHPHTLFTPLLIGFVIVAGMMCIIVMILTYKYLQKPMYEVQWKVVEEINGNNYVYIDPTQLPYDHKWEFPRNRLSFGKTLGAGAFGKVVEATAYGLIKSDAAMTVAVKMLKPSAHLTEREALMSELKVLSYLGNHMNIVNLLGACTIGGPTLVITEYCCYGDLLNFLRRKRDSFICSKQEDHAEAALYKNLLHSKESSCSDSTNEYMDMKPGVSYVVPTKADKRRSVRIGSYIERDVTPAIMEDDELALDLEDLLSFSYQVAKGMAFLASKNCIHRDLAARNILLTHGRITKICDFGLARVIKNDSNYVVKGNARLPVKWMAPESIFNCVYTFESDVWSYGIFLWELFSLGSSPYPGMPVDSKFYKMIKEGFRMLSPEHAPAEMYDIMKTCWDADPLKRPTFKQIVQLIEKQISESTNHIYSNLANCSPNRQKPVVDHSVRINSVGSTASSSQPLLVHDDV
Chain of Flt1(h) (P17948 27-1338): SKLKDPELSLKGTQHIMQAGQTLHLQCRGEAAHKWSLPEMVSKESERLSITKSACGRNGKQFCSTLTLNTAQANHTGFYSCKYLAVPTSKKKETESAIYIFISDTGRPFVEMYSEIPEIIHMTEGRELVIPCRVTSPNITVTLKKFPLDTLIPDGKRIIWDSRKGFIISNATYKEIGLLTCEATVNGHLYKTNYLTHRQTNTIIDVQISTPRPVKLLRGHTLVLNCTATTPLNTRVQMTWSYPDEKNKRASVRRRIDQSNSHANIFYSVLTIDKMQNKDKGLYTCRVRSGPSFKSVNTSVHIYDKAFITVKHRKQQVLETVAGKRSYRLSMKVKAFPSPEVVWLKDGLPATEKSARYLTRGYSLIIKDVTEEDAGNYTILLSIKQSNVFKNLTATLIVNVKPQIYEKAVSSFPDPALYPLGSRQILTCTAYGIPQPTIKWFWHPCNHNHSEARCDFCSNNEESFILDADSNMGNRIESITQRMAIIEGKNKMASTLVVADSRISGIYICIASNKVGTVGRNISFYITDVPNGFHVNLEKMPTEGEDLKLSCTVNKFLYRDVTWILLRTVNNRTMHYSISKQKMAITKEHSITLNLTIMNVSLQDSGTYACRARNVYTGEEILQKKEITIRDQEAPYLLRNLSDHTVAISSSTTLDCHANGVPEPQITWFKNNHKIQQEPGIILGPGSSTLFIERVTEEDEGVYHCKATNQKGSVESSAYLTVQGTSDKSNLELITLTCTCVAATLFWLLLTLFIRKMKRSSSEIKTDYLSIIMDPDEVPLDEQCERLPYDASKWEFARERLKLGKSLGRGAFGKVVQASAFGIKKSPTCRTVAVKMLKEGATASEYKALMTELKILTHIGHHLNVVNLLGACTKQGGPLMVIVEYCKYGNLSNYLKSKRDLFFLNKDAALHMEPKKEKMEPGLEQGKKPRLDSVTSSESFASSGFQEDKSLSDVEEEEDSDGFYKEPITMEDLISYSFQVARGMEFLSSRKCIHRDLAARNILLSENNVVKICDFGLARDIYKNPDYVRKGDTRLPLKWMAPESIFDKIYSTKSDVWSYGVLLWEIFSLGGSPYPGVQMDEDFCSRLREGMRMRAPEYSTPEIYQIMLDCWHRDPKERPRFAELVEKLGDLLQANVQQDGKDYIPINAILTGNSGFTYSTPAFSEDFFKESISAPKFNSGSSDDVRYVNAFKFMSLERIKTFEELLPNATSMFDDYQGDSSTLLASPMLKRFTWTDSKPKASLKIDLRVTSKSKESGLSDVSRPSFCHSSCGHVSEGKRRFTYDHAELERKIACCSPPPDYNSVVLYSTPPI
Chain of GSK3α(h) (P49840 whole entry): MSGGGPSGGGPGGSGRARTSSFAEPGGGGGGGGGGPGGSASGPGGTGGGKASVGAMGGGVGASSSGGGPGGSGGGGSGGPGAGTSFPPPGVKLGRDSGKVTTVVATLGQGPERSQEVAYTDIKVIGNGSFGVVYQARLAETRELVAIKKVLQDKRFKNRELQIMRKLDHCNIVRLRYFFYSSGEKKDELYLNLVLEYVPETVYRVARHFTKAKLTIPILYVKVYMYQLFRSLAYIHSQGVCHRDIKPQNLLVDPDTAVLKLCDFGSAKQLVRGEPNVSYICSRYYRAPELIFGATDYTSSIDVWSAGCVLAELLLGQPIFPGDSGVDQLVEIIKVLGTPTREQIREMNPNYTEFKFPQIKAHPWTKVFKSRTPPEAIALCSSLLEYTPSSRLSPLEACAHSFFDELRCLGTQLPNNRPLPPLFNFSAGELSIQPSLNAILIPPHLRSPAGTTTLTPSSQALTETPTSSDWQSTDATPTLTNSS
Chain of TrkB(h) (Q16620 32-822): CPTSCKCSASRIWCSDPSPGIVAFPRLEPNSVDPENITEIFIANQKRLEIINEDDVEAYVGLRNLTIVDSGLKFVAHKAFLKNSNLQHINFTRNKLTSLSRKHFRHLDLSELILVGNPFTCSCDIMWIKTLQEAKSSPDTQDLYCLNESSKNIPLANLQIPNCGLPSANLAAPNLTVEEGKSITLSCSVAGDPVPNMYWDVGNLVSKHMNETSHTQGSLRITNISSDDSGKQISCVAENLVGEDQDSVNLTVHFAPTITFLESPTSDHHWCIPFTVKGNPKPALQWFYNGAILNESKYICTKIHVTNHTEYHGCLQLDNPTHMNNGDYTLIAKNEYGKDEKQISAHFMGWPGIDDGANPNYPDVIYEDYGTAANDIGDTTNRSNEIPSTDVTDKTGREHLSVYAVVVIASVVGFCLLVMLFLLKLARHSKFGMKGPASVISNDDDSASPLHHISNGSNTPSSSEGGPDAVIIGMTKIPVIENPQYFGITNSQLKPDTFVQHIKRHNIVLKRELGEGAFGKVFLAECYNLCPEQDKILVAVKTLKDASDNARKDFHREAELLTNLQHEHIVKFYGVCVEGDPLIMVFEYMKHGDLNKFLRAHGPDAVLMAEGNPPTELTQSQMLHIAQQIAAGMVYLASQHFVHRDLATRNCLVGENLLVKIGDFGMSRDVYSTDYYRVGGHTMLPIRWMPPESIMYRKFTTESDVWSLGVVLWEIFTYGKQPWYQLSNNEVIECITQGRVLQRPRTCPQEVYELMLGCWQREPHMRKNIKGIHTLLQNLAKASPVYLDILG
Chain of IKKβ(h) (O14920 whole entry): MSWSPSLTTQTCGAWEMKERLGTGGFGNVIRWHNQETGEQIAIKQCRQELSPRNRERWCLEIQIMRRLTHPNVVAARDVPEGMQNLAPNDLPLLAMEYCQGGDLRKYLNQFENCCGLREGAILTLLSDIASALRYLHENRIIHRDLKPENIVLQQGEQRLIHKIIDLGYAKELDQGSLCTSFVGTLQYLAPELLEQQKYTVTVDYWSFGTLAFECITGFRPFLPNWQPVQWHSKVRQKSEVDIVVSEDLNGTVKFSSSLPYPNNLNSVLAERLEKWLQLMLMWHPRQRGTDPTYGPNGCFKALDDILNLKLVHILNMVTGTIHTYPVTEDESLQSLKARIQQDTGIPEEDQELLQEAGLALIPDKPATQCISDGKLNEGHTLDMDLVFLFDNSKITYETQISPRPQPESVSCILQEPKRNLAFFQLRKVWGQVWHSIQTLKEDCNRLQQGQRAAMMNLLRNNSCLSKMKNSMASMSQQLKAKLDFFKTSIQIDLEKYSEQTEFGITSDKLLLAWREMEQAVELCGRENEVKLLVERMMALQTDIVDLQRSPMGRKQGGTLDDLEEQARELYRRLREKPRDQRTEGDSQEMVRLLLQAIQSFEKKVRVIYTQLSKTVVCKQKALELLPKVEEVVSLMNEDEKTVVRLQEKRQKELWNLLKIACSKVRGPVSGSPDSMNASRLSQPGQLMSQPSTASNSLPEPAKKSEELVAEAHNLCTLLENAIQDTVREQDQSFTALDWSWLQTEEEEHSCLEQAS

## COc1cc(O)c2c(c1)[C@H]1O[C@@H]1C[C@H](O)[C@H](O)C(=O)/C=C\C[C@H](C)OC2=O [Hypothemycin, hypothemycin]
[1]; 0.2 μM
  remaining activity at 0.2 µM: 90%
[1]; 2.0 μM
  remaining activity at 2 µM: 88%
[2]
  remaining activity at 0.2 µM: 97%
[3]
  remaining activity at 0.2 µM: 100%
[4]
  remaining activity at 0.2 µM: 118%
[5]
  remaining activity at 0.2 µM: 102%
[6]
  remaining activity at 0.2 µM: 93%
[7]
  remaining activity at 0.2 µM: 104%
[8]; 0.2 μM
  remaining activity at 0.2 µM: 58%
[8]; 2.0 μM
  remaining activity at 2 µM: 18%
[9]; 0.2 μM
  remaining activity at 0.2 µM: 81%
[9]; 2.0 μM
  remaining activity at 2 µM: 94%
[10]
  remaining activity at 0.2 µM: 91%
[11]; 0.2 μM
  remaining activity at 0.2 µM: 85%
[11]; 2.0 μM
  remaining activity at 2 µM: 41%
[12]
  remaining activity at 0.2 µM: 108%
[13]
  remaining activity at 0.2 µM: 96%
[14]
  remaining activity at 0.2 µM: 98%
[15]
  remaining activity at 0.2 µM: 101%
[16]
  remaining activity at 0.2 µM: 99%
[17]
  remaining activity at 0.2 µM: 102%
[18]
  remaining activity at 0.2 µM: 94%
[19]
  remaining activity at 0.2 µM: 104%
[20]
  remaining activity at 0.2 µM: 91%
[21]; 0.2 μM
  remaining activity at 0.2 µM: 634%
[21]; 2.0 μM
  remaining activity at 2 µM: 106%
[22]
  remaining activity at 0.2 µM: 101%
[23]; 0.2 μM
  remaining activity at 0.2 µM: 57%
[23]; 2.0 μM
  remaining activity at 2 µM: 0%
[24]
  remaining activity at 0.2 µM: 100%
[25]
  remaining activity at 0.2 µM: 97%
[26]
  remaining activity at 0.2 µM: 94%
[27]
  remaining activity at 0.2 µM: 96%
[28]
  remaining activity at 0.2 µM: 90%
[29]
  remaining activity at 0.2 µM: 106%
[30]
  remaining activity at 0.2 µM: 99%
[31]
  remaining activity at 0.2 µM: 92%
[32]
  remaining activity at 0.2 µM: 92%
[33]
  remaining activity at 0.2 µM: 96%
[34]; 0.2 μM
  remaining activity at 0.2 µM: 2%
[34]; 2.0 μM
  remaining activity at 2 µM: 7%
[35]
  remaining activity at 0.2 µM: 97%
[36]
  remaining activity at 0.2 µM: 93%
[37]
  remaining activity at 0.2 µM: 98%
